This note sets out measurements from EPA's aquatic toxicity sets.

One data set concerns Pimephales promelas. Put plainly: 96 h LC50 (-log10 mol/L); higher = more toxic.
The next data set deals with Daphnia magna. Put plainly: 48 h LC50 (-log10 mol/L); higher = more toxic.
Another data set relates to Tetrahymena pyriformis. Put plainly: 48 h IGC50 (-log10 mol/L); higher = more toxic.

On to `O=[N+]([O-])c1ccc(O)c([N+](=O)[O-])c1`, for which the “96 h LC50 (-log10 mol/L)” value with Pimephales promelas is 4.22. Further, in the data set with Daphnia magna, the “48 h LC50 (-log10 mol/L)” value was 4.61. Further, in the data set on Tetrahymena pyriformis, the “48 h IGC50 (-log10 mol/L)” value stood at 4.06.
Consider `CC1=CC(=O)c2ccccc2C1=O`, for which the “96 h LC50 (-log10 mol/L)” value in the data set with Pimephales promelas amounted to 6.2. Moreover, the “48 h LC50 (-log10 mol/L)” value with Daphnia magna was 5.54. In the data set with Tetrahymena pyriformis, the “48 h IGC50 (-log10 mol/L)” value amounted to 4.54.
Turning to `Nc1ccc(Cl)c(Cl)c1Cl`, in the data set with Pimephales promelas, the “96 h LC50 (-log10 mol/L)” value was found to be 4.74. Further, the “48 h LC50 (-log10 mol/L)” value in the data set with Daphnia magna stood at 5.43. In the data set on Tetrahymena pyriformis, the “48 h IGC50 (-log10 mol/L)” value is 4.35.
The matching figures for `O=[N+]([O-])c1ccccc1`: 3.02, 3.62 and 3.14.
Regarding `Clc1ccccc1`, in the data set on Pimephales promelas, the “96 h LC50 (-log10 mol/L)” value came out at 3.65. The “48 h LC50 (-log10 mol/L)” value in the data set on Daphnia magna amounted to 3.92. In addition, in the data set with Tetrahymena pyriformis, the “48 h IGC50 (-log10 mol/L)” value is 2.87.
`CCO`: the “96 h LC50 (-log10 mol/L)” value with Pimephales promelas came out at 0.534. Further, the “48 h LC50 (-log10 mol/L)” value in the data set on Daphnia magna came out at 0.59. Also, in the data set with Tetrahymena pyriformis, the “48 h IGC50 (-log10 mol/L)” value turned out to be 1.01.
The corresponding values for `CCc1ccc(C)nc1` are 3.17, 3.48 and 2.82.
The matching figures for `C=CC=O`: 6.32, 5.99 and 4.89.
The corresponding values for `CC(C)=O` are 0.854, 0.673 and 0.796.
On to `CCCCCCCO`, for which, in the data set with Pimephales promelas, the “96 h LC50 (-log10 mol/L)” value was determined as 3.51. Further, the “48 h LC50 (-log10 mol/L)” value in the data set on Daphnia magna was 3.23. For the same compound, in the data set on Tetrahymena pyriformis, the “48 h IGC50 (-log10 mol/L)” value turned out to be 3.1.
The matching figures for `c1ccc(-c2ccccc2)cc1`: 4.72, 4.91 and 4.05.
With `CCCO`, the “96 h LC50 (-log10 mol/L)” value in the data set with Pimephales promelas was found to be 1.12. The “48 h LC50 (-log10 mol/L)” value in the data set on Daphnia magna is 0.935. For the same compound, in the data set on Tetrahymena pyriformis, the “48 h IGC50 (-log10 mol/L)” value stood at 1.25.
The matching figures for `C=Cc1ccccc1`: 3.79, 3.53 and 2.98.
